We go through six molecules from patent US6706740B2, “Fungicidal heterocyclic aromatic amides and their compositions, methods of use and preparation” (Dow AgroSciences LLC, priority 1999, dated 2004).

SMILES strings stand for the structures. Where two headings read alike, the source gives them in different places. Where only a bound is given, the exact number is not on record here.

Test [1] deals with Phytophthora infestans—PHYTIN. The test can be described thus: whole plant or invertebrate. The conditions noted are these: Phytophthora, in Solanum lycopersicum, 24 h, read-out: PHYTIN in vivo 1 Day Protectant. The format is in vivo.
Test [2] relates to Septoria tritici—SEPTTR. The test can be described thus: Leaf Blotch of Wheat, in vivo whole plant, 24 Hour Protectant. The conditions noted are these: Zymoseptoria tritici, 24 h, control of fungal infection vs untreated plants, read-out: SEPTTR in vivo 1 Day Protectant.
The subject of test [3] is Erysiphe graminis—ERYSGT. The test is described as follows: Powdery Mildew of Wheat, in vivo whole plant, 24 Hour Protectant. The conditions noted are these: Erysiphe, control of fungal infection vs untreated plants, read-out: ERYSGT in vivo 1 Day Protectant.
The test system of test [4] is Ustilago maydis (USTIMA). The test can be described thus: microbe, parasite or virus in culture. The format is cell-based. The conditions noted are these: Mycosarcoma maydis, read-out: USTIMA in vitro Growth Inhibition.
Test [5] has as its system Leptosphaeria nodorum—LEPTNO. The test is described as follows: Glume Blotch of Wheat, in vivo whole plant, 24 Hour Protectant. The conditions noted are these: control of fungal infection vs untreated plants; for pest or weed control at 100 ppm: Leptosphaeria, read-out: LEPTNO in vivo 1 Day Protectant.
For test [6], the system named is Magnaporthe grisea (Pyricularia oryzae—PYRIOR). The test can be described thus: microbe, parasite or virus in culture. In kind it is cell-based. The note with it: Pyricularia oryzae, read-out: PYRIOR in vitro Growth Inhibition.
Test [7] relates to Rhizoctonia solani (RHIZSO). The test can be described thus: microbe, parasite or virus in culture. The format is cell-based. The conditions noted are these: Rhizoctonia solani, read-out: RHIZSO in vitro Growth Inhibition.
Test [8] concerns Puccinia recondita—PUCCRT. The test is described as follows: Brown Rust of Wheat, in vivo whole plant, 24 Hour Protectant. The conditions noted are these: control of fungal infection vs untreated plants; for pest or weed control at 100 ppm: Puccinia, read-out: PUCCRT in vivo 1 Day Protectant.
Test [9] has as its system Mycosphaerella graminicola (Septoria tritici—SEPTTR). The test can be described thus: In vitro fungal growth inhibition, Mycosphaerella graminicola (SEPTTR). The note with it: Zymoseptoria tritici, read-out: SEPTTR in vitro Growth Inhibition. The format is cell-based.
In test [10] the test system is Stagonospora nodorum (Leptosphaeria nodorum—LEPTNO). The test is described as follows: In vitro fungal growth inhibition, Stagonospora nodorum (LEPTNO). The format is cell-based. The conditions noted are these: Leptosphaeria, read-out: LEPTNO in vitro Growth Inhibition.
Test [11] concerns Phytophthora infestans (PHYTIN). The test can be described thus: microbe, parasite or virus in culture. The format is cell-based. The note with it: Phytophthora infestans, read-out: PHYTIN in vitro Growth Inhibition.
Where [12] appears, read: 100 ppm spray, wheat, 24 hour protectant.
[13] abbreviates: wheat plants sprayed at 100 ppm, inoculated after 24 hours.
The mark [14] stands for this setting: 100 ppm spray, 24 hour protectant, wheat.

Turning to `COc1ccnc(C(=O)N[C@H]2COC(=O)[C@H](Cc3ccccc3)[C@@H](OC(=O)C3CCCC3)[C@H](C)OC2=O)c1O` [Compound 391], the pest or weed control at 100 ppm is below 25% in [1], 25 to 74% in [2] (setting [12]), below 25% in test [3] (setting [12]) and 25 to 74% in test [8] (setting [12]). The inhibition at 25 ppm in test [4] is above 80%; in test [6], above 80%; in test [7] it was below 80%; in test [9] (25 ppm in growth medium), above 80%; in test [10] (25 ppm in growth medium) it was above 80%; in test [11] it was below 80%. For the same molecule, the “LEPTNO in vivo 1 Day Protectant” value in test [5] (setting [12]) is “+ +”.

For `COc1ccnc(C(=O)Nc2ccc(Oc3cc(Oc4ccccc4)ncn3)cc2)c1O` [Compound 468], the pest or weed control at 100 ppm in [1] was below 25%; in [2] (setting [13]), 25 to 74%; in test [3] (setting [13]), below 25%; in [5] (setting [13]), below 25%; in [8] (setting [13]), below 25%. In addition, the inhibition at 25 ppm in test [4], in test [6], in test [7], in test [9] (25 ppm in the growth medium), in test [10] (25 ppm in the growth medium) and in [11] was below 80% each time.

In the case of `O=C(Nc1ccccc1Oc1ccc(C(F)(F)F)cc1)c1nc(Br)ccc1O` [Compound 493], the pest or weed control at 100 ppm in [1] is below 25%; in [2] (setting [13]) it was 25 to 74%; in test [3] (setting [13]), below 25%; in test [5] (setting [13]), below 25%; in test [8] (setting [13]), below 25%. Further, the inhibition at 25 ppm in [4], in [6], in [7], in test [9] (25 ppm in the growth medium), in [10] (25 ppm in the growth medium) and in [11] was below 80% in each case.

Turning to `COc1ccnc(C(=O)N[C@@H]2CC3CC2c2ccccc23)c1O` (stereo partly drawn) [Compound 290], the pest or weed control at 100 ppm in test [1] was below 25%; in test [2] (setting [14]), 25 to 74%; in test [3] (setting [14]), 25 to 74%. For the same molecule, the inhibition at 25 ppm in test [4] is below 80%; in test [6], above 80%; in test [7], above 80%; in [9] (25 ppm in growth medium), above 80%; in [10] (25 ppm in growth medium), above 80%; in [11], below 80%. In test [5] (setting [14]), the “LEPTNO in vivo 1 Day Protectant” value is recorded as “+ +”. The “PUCCRT in vivo 1 Day Protectant” value in test [8] (setting [14]) is “+ +”.

For the molecule `CO/N=C(/c1ccc(NC(=O)c2nccc(OC)c2O)cc1)c1cccc(C(F)(F)F)c1` [Compound 408], the pest or weed control at 100 ppm was below 25% in [1]; 25 to 74% in test [2] (setting [12]); 25 to 74% in test [3] (setting [12]); 25 to 74% in test [5] (setting [12]); below 25% in test [8] (setting [12]). The inhibition at 25 ppm in test [4] was below 80%; in [6] it was below 80%; in test [7], below 80%; in [9] (25 ppm in growth medium), below 80%; in [10] (25 ppm in growth medium), above 80%; in test [11] it was below 80%.

As to `COC(=O)C(Cc1ccc(OCc2ccccc2)cc1)NC(=O)c1nccc(OC)c1O` (single isomer, unassigned) [Compound 338], the pest or weed control at 100 ppm in [1] was below 25%; in test [2] (setting [12]), 25 to 74%; in test [3] (setting [12]) it was below 25%. Moreover, the inhibition at 25 ppm in test [4] was above 80%; in test [6] it was below 80%; in test [7], below 80%; in [9] (25 ppm in growth medium), below 80%; in test [10] (25 ppm in growth medium), below 80%; in test [11], below 80%. Besides, in test [5] (setting [12]), the “LEPTNO in vivo 1 Day Protectant” value was “+ +”. For the same molecule, in test [8] (setting [12]), the “PUCCRT in vivo 1 Day Protectant” value was “+ +”.
